The source of these data is patent US11389463B2, “Antiviral nucleoside reverse transcriptase inhibitor” (priority 2017, dated 2022).

The conditions of series [1]: relative to TDF; cited from earlier work.
In a further series the test system is immune cells. To be noted: relative to TDF; cited from earlier work.
For a further series, the system named is HIV-1. Kind of series: Detection of in vitro anti-HIV activity (HIV-1 infected MT-4 cells, CellTiter-glo). The format is cell-based. The note with it: Human immunodeficiency virus 1, MT4, 120 h, 5 days, read-out: HIV activity and cytotoxicity data EC50. For orientation: In ATP-based viability assays light output follows the ATP content of the culture.
Series [2] in a line: Cytotoxicity assay in uninfected MT-4 cells (CellTiter-glo). The class given is cell-based. The note with it: human, read-out: HIV activity and cytotoxicity data CC50. The procedure: The data was analyzed by GraphPad Prism software, and the curve was fitted and EC50 and CC50 values were calculated. EC50 refers to the effective concentration that inhibits 50% virus production, 50% virus infectivity, or 50% virus-induced cellular effects. CC50 refers to the inhibitory concentration that reduces the cell growth or viability of uninfected cells by 50%.
Viral infection and cell treatment: HIV-1 and MT-4 cells were co-incubated at 37° C., in an incubator with 5% CO2 for 1 h. The infected cells were then seeded in a cell culture plate at a certain density. The final concentration of DMSO in the cell culture medium was 0.5%. The cells were incubated at 37° C., in an incubator with 5% CO2 for 5 days. The cells tested in the cytotoxicity assay were uninfected MT-4 cells, and other test conditions were with the same as that of the antiviral activity assay.
The activity assay of the cell: the cell viability was tested by using cell viability assay reagent CellTiter-glo (Promega). The raw data was used for calculating the anti-HIV-1 activity and cytotoxicity of the Compounds.

The test system of a further series is HBV. Kind of series: Detection of anti-HBV activity in vitro (HepG2.2.15 cells, HBV DNA by quantitative PCR). The note with it: Hepatitis B virus, HBV DNA in supernatant on the eighth day, read-out: HBV activity and cytotoxicity data EC50. The format is cell-based. The procedure:
Anti-cell viability assay: in vitro anti-hepatitis b virus activity of Example compounds was tested in HepG2.2.15 cells with TDF as a positive control compound. Cells were seeded into a 96-well plate on the first day; the compounds were added to treat the cells on the next day; and a new culture medium containing the compounds was replaced on the fifth day. On the eighth day, the supernatant was collected for DNA extraction. The content of HBV DNA was detected by quantitative PCR. Both test compound and TDF were subjected to a 3-fold serial dilution to get 8 concentration points in duplicate. The final concentration of DMSO in the culture medium was 0.5%. The formula for calculating the percentage of inhibition is as follows: Inhibition rate=(1−copy number of HBV in sample/copy number of HBV in DMSO control group)×100%

A short description of series [3]: Cytotoxicity experiments of the anti-HBV test (Cell-titer Blue). The class given is cell-based. To be noted: human, HepG2.2.15 cells, six days after treatment. The procedure:
Cytotoxicity experiments: the arrangement of compounds on plate and compound-treatment process were the same as that of […] activity. Six days after the cells were treated by compounds, the cell activity was tested. Cell-titer Blue reagent was added to each well, the cells were incubated at 37° C. for 3 hours, and fluorescence values were read (560Ex/590 Em). The data were analyzed and the relative cell viability was calculated:
The percentage of cell viability was calculated using the following formula: % cell viability=(fluorescence reading of sample−fluorescence reading of culture control)/(fluorescence reading of DMSO control−fluorescence reading of culture control)×100.
Finally, the CC50 value of the compounds were calculated by the GraphPad Prism software.

Series [4] in a line: Liver microsomal metabolism experiment, human liver microsomes. The format is in vitro ADME. The note with it: pH 7.4, 1 μM compound, 0.5 mg/mL protein, NADPH. The procedure:
(§1) Microsomal experiments: human liver microsomes: 0.5 mg/mL, Xenotech; rat liver microsomes: 0.5 mg/mL, Xenotech; coenzyme (NADPH/NADH): 1 mM, Sigma Life Science; magnesium chloride: 5 mM, 100 mM phosphate buffer (pH 7.4).
(§2) Preparation of stock solution: powder of Example compounds were precisely weighed and dissolved in DMSO to 5 mM.
(§3) Preparation of phosphate buffer (100 mm, pH 7.4): 0.5M pre-formulated potassium dihydrogen phosphate (150 ml) and 0.5M potassium hydrogen phosphate (700 ml) were mixed well. The pH of the mixture was then adjusted to 7.4 with 0.5M potassium hydrogen phosphate solution. The resulting solution was 5-fold diluted with ultrapure water before use, and magnesium chloride was added to the solution, affording a phosphate buffer (100 mm), containing potassium phosphate (100 mM), magnesium chloride (3.3 mM), pH 7.4. […]
(§4) Data analysis: The peak area of the corresponding compounds and internal standard was detected by LC-MS/MS system, and the peak area ratio of compounds to internal standard was calculated. The slope was measured by plotting the natural log of the percentage of the remaining amount of the compounds versus time, and t1/2 and CLint were calculated according to the following formula, where V/M is equal to 1/protein concentration.
On the technique in general: Liver microsomes are a subcellular fraction often used to study metabolism.

A short description of series [5]: Liver microsomal metabolism experiment, rat liver microsomes. The format is in vitro ADME. To be noted: SD, pH 7.4, 1 μM compound, 0.5 mg/mL protein, NADPH. The procedure: as §1, §2, §3, §4

Structures are written as SMILES. Structures can show the parent of a compound that is named as a salt.

Method for HIV-1: Compound treatment: the test compounds and the reference compounds were 2-fold diluted with DMSO and added to the cell culture plate. The test compounds and the reference compounds were tested at 8 concentrations in duplicate.

For the compound `CC(C)OC(=O)[C@H](C)N[P@](=O)(CO[C@H](C)Cn1cnc2c(N)ncnc21)Oc1ccccc1` [TAF, Tenofovir Alafenamide Fumarate], in series [1], the “concentration of TFV in plasma metabolized by TAF, lower than that of TDF” value is 90%. Moreover, the “concentration of TFV in immune cells metabolized by TAF, times higher than that of TDF” value in the series on immune cells is 4 times.

In general, EC50 refers to the concentration that produces a half-maximal response. What is called CC50 is the concentration giving 50% cytotoxicity. On to `CCCCCCCCCCCCCCCCS(=S)CCO[P@](=O)(CO[C@H](C)Cn1cnc2c(N)ncnc21)OCOC(=O)OC(C)C` (single isomer, unassigned) [Compound T-3-2], for which the EC50 in the series on HIV-1 was at most 0.005 µM; in the series with HBV, 0.1 to 0.4 µM. In series [2], the 50% cytotoxic concentration (CC50) at 5 days lay within 0.1 to 0.5 µM. The compound further displayed a CC50 at 6 days in series [3] above 50 µM. Besides, the microsomal CLint at 1 μM in series [4] (read-out: Human liver microsome experiment CLint) turned out to be 71 µL/min/mg; in series [5] (read-out: Rat liver microsome experiment CLint) it was 54.4 µL/min/mg. For the same compound, the figures for the half-life at 1 μM in series [4] (read-out: Human liver microsome experiment t1/2(min)) and in series [5] (read-out: Rat liver microsome experiment t1/2(min)) were 19.5 min and 25.5 min, respectively.

Turning to `CCCCCCCCCCCCCCCCS(=S)CCO[P@@](=O)(CO[C@H](C)Cn1cnc2c(N)ncnc21)OCOC(=O)OC(C)C` (single isomer, unassigned) [Compound T-3-1], the EC50 in the series on HIV-1 is at most 0.005 µM; in the series with HBV, 0.1 to 0.4 µM. Besides, the CC50 at 5 days in series [2] is 0.1 to 0.5 µM. This compound also came in with a CC50 at 6 days in series [3] above 50 µM.
